Test results published in US20090018111A1, “Novel Antimicrobial Medicament” (priority 2004, published 2009).
Read-outs that look alike come from different tables or passages of the source.

Key:
[1] = test system: S. epidermidis IAM1296; assay: Sensitivity test (agar dilution); type: cell-based, Staphylococcus epidermidis
How it was run: (§1)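 Strains were grown overnight at 37° C, brought to about 10^6 CFU/ml in gelatin-buffered saline, and ~5 μl inoculated onto MHA plates carrying two-fold dilution series of the test drug alone or in combination, following the Japan Chemotherapeutic Society agar dilution standard.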

[2] = test system: M. luteus ATCC9341; assay: Sensitivity test (agar dilution); type: cell-based, Micrococcus luteus; conditions: Micrococcus luteus
How it was run: as §1

[3] = test system: E. faecium ATCC19434; assay: Sensitivity test (agar dilution); type: cell-based, Enterococcus faecium; conditions: for MIC: Enterococcus faecium
How it was run: as §1

[4] = test system: E. coli ML1410 RP4; assay: microbe, parasite or virus in culture; type: cell-based, Escherichia coli; conditions: Escherichia coli
How it was run: as §1

[5] = test system: K. pneumoniae ATCC10031; assay: Sensitivity test (agar dilution); type: cell-based, Klebsiella pneumoniae; conditions: Klebsiella pneumoniae
How it was run: as §1

[6] = test system: P. mirabiris GN2425; assay: Sensitivity test (agar dilution); type: cell-based, Proteus mirabilis; conditions: Proteus mirabilis
How it was run: as §1

[7] = test system: S. marcescens GN6473; assay: Sensitivity test (agar dilution); type: cell-based, Serratia marcescens; conditions: Serratia marcescens, S. marcescens GN6473, read-out: MIC concomitant
How it was run: as §1

## C[C@H]1C=C(c2csc(SC3=C(C(=O)O)N4C(=O)[C@H]([C@@H](C)O)[C@H]4[C@H]3C)n2)CN1 [SM, (4R,5S,6S)-6-[(1R)-1-Hydroxyethyl]-4-methyl-3-({4-[(5S)-5-methyl-2,5-dihydro-1H-pyrrol-3-yl]-1,3-thiazol-2-yl}sulfanyl)-7-oxo-1-azabicyclo[3.2.0]hept-2-ene-2-carboxylic acid]
[1]; Staphylococcus epidermidis, IAM1296, Concomitant (AZT:SM = 1:1), S. epidermidis IAM1296, read-out: MIC concomitant
  MIC: 0.031 mg/L
[1]; Staphylococcus epidermidis, IAM1296, Concomitant (BIPM:SM = 1:1), S. epidermidis IAM1296, read-out: MIC concomitant
  MIC: 0.031 mg/L
[1]; Staphylococcus epidermidis, IAM1296, Concomitant (CAZ:SM = 1:1), S. epidermidis IAM1296, read-out: MIC concomitant
  MIC: 0.031 mg/L
[1]; Staphylococcus epidermidis, IAM1296, Concomitant (CPFX:SM = 1:1), S. epidermidis IAM1296, read-out: MIC concomitant
  MIC: 0.031 mg/L
[1]; Staphylococcus epidermidis, IAM1296, Concomitant (DRPM:SM = 1:1), S. epidermidis IAM1296, read-out: MIC concomitant
  MIC: 0.031 mg/L
[1]; Staphylococcus epidermidis, IAM1296, Concomitant (IPM:SM = 1:1), read-out: MIC
  MIC: 0.016 mg/L
[1]; Staphylococcus epidermidis, IAM1296, Concomitant (MEPM:SM = 1:1), read-out: MIC
  MIC: ≤ 0.016 mg/L
[1]; Staphylococcus epidermidis, IAM1296, Concomitant (MEPM:SM = 1:2), read-out: MIC
  MIC: ≤ 0.031 mg/L
[1]; Staphylococcus epidermidis, IAM1296, Concomitant (MEPM:SM = 1:4), read-out: MIC
  MIC: ≤ 0.063 mg/L
[1]; Staphylococcus epidermidis, IAM1296, Concomitant (PAPM:SM = 1:1), S. epidermidis IAM1296, read-out: MIC concomitant
  MIC: 0.016 mg/L
[1]; Staphylococcus epidermidis, IAM1296, Concomitant (PIPC:SM = 1:1), S. epidermidis IAM1296, read-out: MIC concomitant
  MIC: 0.016 mg/L
[1]; Staphylococcus epidermidis, IAM1296, Concomitant drug (MEPM:SM = 2:1), read-out: MIC
  MIC: 0.031 mg/L
[1]; Staphylococcus epidermidis, IAM1296, alone, read-out: MIC
  MIC: 0.016 mg/L
[1]; Staphylococcus epidermidis, IAM1296, drug alone, S. epidermidis IAM1296, read-out: MIC alone
  MIC: 0.031 mg/L
[1]; alone
  MIC: 0.031 mg/L
[1]; drug alone, S. epidermidis IAM1296
  MIC alone: 0.016 mg/L
[2]; ATCC9341, Concomitant (AZT:SM = 1:1), M. luteus ATCC9341, read-out: MIC concomitant
  MIC: ≤ 0.002 mg/L
[2]; ATCC9341, Concomitant (BIPM:SM = 1:1), M. luteus ATCC9341, read-out: MIC concomitant
  MIC: 0.004 mg/L
[2]; ATCC9341, Concomitant (CAZ:SM = 1:1), M. luteus ATCC9341, read-out: MIC concomitant
  MIC: ≤ 0.002 mg/L
[2]; ATCC9341, Concomitant (CPFX:SM = 1:1), M. luteus ATCC9341, read-out: MIC concomitant
  MIC: 0.004 mg/L
[2]; ATCC9341, Concomitant (DRPM:SM = 1:1), M. luteus ATCC9341, read-out: MIC concomitant
  MIC: ≤ 0.002 mg/L
[2]; ATCC9341, Concomitant (IPM:SM = 1:1), read-out: MIC
  MIC: 0.004 mg/L
[2]; ATCC9341, Concomitant (MEPM:SM = 1:1), read-out: MIC
  MIC: ≤ 0.016 mg/L
[2]; ATCC9341, Concomitant (MEPM:SM = 1:2), read-out: MIC
  MIC: ≤ 0.031 mg/L
[2]; ATCC9341, Concomitant (MEPM:SM = 1:4), read-out: MIC
  MIC: ≤ 0.063 mg/L
[2]; ATCC9341, Concomitant (PAPM:SM = 1:1), M. luteus ATCC9341, read-out: MIC concomitant
  MIC: ≤ 0.002 mg/L
[2]; ATCC9341, Concomitant (PIPC:SM = 1:1), M. luteus ATCC9341, read-out: MIC concomitant
  MIC: ≤ 0.002 mg/L
[2]; ATCC9341, Concomitant drug (MEPM:SM = 2:1), read-out: MIC
  MIC: ≤ 0.008 mg/L
[2]; ATCC9341, alone, read-out: MIC
  MIC: ≤ 0.008 mg/L
[2]; ATCC9341, drug alone, M. luteus ATCC9341, read-out: MIC alone
  MIC: 0.004 mg/L
[3]; ATCC19434, Concomitant (AZT:SM = 1:1), E. faecium ATCC19434, read-out: MIC concomitant
  MIC: 0.125 mg/L
[3]; ATCC19434, Concomitant (BIPM:SM = 1:1), E. faecium ATCC19434, read-out: MIC concomitant
  MIC: 0.25 mg/L
[3]; ATCC19434, Concomitant (CAZ:SM = 1:1), E. faecium ATCC19434, read-out: MIC concomitant
  MIC: 0.125 mg/L
[3]; ATCC19434, Concomitant (CPFX:SM = 1:1), E. faecium ATCC19434, read-out: MIC concomitant
  MIC: 0.25 mg/L
[3]; ATCC19434, Concomitant (DRPM:SM = 1:1), E. faecium ATCC19434, read-out: MIC concomitant
  MIC: 0.25 mg/L
[3]; ATCC19434, Concomitant (IPM:SM = 1:1), read-out: MIC
  MIC: 0.125 mg/L
[3]; ATCC19434, Concomitant (MEPM:SM = 1:1), read-out: MIC
  MIC: 0.125 mg/L
[3]; ATCC19434, Concomitant (MEPM:SM = 1:2), read-out: MIC
  MIC: 0.25 mg/L
[3]; ATCC19434, Concomitant (MEPM:SM = 1:4), read-out: MIC
  MIC: 0.125 mg/L
[3]; ATCC19434, Concomitant (PAPM:SM = 1:1), E. faecium ATCC19434, read-out: MIC concomitant
  MIC: 0.125 mg/L
[3]; ATCC19434, Concomitant (PIPC:SM = 1:1), E. faecium ATCC19434, read-out: MIC concomitant
  MIC: 0.125 mg/L
[3]; ATCC19434, Concomitant drug (MEPM:SM = 2:1), read-out: MIC
  MIC: 0.25 mg/L
[3]; ATCC19434, alone, read-out: MIC
  MIC: 0.25 mg/L
[3]; ATCC19434, drug alone, E. faecium ATCC19434, read-out: MIC alone
  MIC: 0.25 mg/L
[3]; drug alone, E. faecium ATCC19434
  MIC alone: 0.125 mg/L
[4]; ML1410RP4, Concomitant (IPM:SM = 1:1)
  MIC: 0.125 mg/L
[4]; ML1410RP4, Concomitant (MEPM:SM = 1:1)
  MIC: ≤ 0.016 mg/L
[4]; ML1410RP4, Concomitant (MEPM:SM = 1:2)
  MIC: ≤ 0.031 mg/L
[4]; ML1410RP4, Concomitant (MEPM:SM = 1:4)
  MIC: ≤ 0.063 mg/L
[4]; ML1410RP4, Concomitant drug (MEPM:SM = 2:1)
  MIC: ≤ 0.008 mg/L
[4]; ML1410RP4, alone
  MIC: 0.5 mg/L
[4]; ML1410RP4, read-out: MIC alone, drug alone, E. coli ML1410 RP4
  MIC: 0.5 mg/L
[4]; ML1410RP4, read-out: MIC concomitant, Concomitant (AZT:SM = 1:1), E. coli ML1410 RP4
  MIC: 0.063 mg/L
[4]; ML1410RP4, read-out: MIC concomitant, Concomitant (BIPM:SM = 1:1), E. coli ML1410 RP4
  MIC: 0.125 mg/L
[4]; ML1410RP4, read-out: MIC concomitant, Concomitant (CAZ:SM = 1:1), E. coli ML1410 RP4
  MIC: 0.125 mg/L
[4]; ML1410RP4, read-out: MIC concomitant, Concomitant (CPFX:SM = 1:1), E. coli ML1410 RP4
  MIC: 0.25 mg/L
[4]; ML1410RP4, read-out: MIC concomitant, Concomitant (DRPM:SM = 1:1), E. coli ML1410 RP4
  MIC: 0.031 mg/L
[4]; ML1410RP4, read-out: MIC concomitant, Concomitant (PAPM:SM = 1:1), E. coli ML1410 RP4
  MIC: 0.125 mg/L
[4]; ML1410RP4, read-out: MIC concomitant, Concomitant (PIPC:SM = 1:1), E. coli ML1410 RP4
  MIC: 0.5 mg/L
[5]; ATCC10031, Concomitant (AZT:SM = 1:1), K. pneumoniae ATCC10031, read-out: MIC concomitant
  MIC: 0.004 mg/L
[5]; ATCC10031, Concomitant (BIPM:SM = 1:1), K. pneumoniae ATCC10031, read-out: MIC concomitant
  MIC: 0.016 mg/L
[5]; ATCC10031, Concomitant (CAZ:SM = 1:1), K. pneumoniae ATCC10031, read-out: MIC concomitant
  MIC: 0.008 mg/L
[5]; ATCC10031, Concomitant (CPFX:SM = 1:1), K. pneumoniae ATCC10031, read-out: MIC concomitant
  MIC: ≤ 0.002 mg/L
[5]; ATCC10031, Concomitant (DRPM:SM = 1:1), K. pneumoniae ATCC10031, read-out: MIC concomitant
  MIC: 0.008 mg/L
[5]; ATCC10031, Concomitant (IPM:SM = 1:1), read-out: MIC
  MIC: 0.031 mg/L
[5]; ATCC10031, Concomitant (MEPM:SM = 1:1), read-out: MIC
  MIC: ≤ 0.016 mg/L
[5]; ATCC10031, Concomitant (MEPM:SM = 1:2), read-out: MIC
  MIC: ≤ 0.031 mg/L
[5]; ATCC10031, Concomitant (MEPM:SM = 1:4), read-out: MIC
  MIC: ≤ 0.063 mg/L
[5]; ATCC10031, Concomitant (PAPM:SM = 1:1), K. pneumoniae ATCC10031, read-out: MIC concomitant
  MIC: 0.016 mg/L
[5]; ATCC10031, Concomitant (PIPC:SM = 1:1), K. pneumoniae ATCC10031, read-out: MIC concomitant
  MIC: 0.016 mg/L
[5]; ATCC10031, Concomitant drug (MEPM:SM = 2:1), read-out: MIC
  MIC: ≤ 0.008 mg/L
[6]; GN2425, Concomitant (IPM:SM = 1:1)
  MIC: 0.25 mg/L
[6]; GN2425, Concomitant (MEPM:SM = 1:1)
  MIC: ≤ 0.016 mg/L
[6]; GN2425, Concomitant (MEPM:SM = 1:2)
  MIC: 0.063 mg/L
[6]; GN2425, Concomitant (MEPM:SM = 1:4)
  MIC: ≤ 0.063 mg/L
[6]; GN2425, Concomitant drug (MEPM:SM = 2:1)
  MIC: 0.016 mg/L
[6]; GN2425, alone
  MIC: 0.125 mg/L
[6]; GN2425, read-out: MIC alone, drug alone, P. mirabiris GN2425
  MIC: 0.125 mg/L
[6]; GN2425, read-out: MIC concomitant, Concomitant (AZT:SM = 1:1), P. mirabiris GN2425
  MIC: 0.004 mg/L
[6]; GN2425, read-out: MIC concomitant, Concomitant (BIPM:SM = 1:1), P. mirabiris GN2425
  MIC: 0.125 mg/L
[6]; GN2425, read-out: MIC concomitant, Concomitant (CAZ:SM = 1:1), P. mirabiris GN2425
  MIC: 0.031 mg/L
[6]; GN2425, read-out: MIC concomitant, Concomitant (CPFX:SM = 1:1), P. mirabiris GN2425
  MIC: 0.031 mg/L
[6]; GN2425, read-out: MIC concomitant, Concomitant (DRPM:SM = 1:1), P. mirabiris GN2425
  MIC: 0.063 mg/L
[6]; GN2425, read-out: MIC concomitant, Concomitant (PAPM:SM = 1:1), P. mirabiris GN2425
  MIC: 0.125 mg/L
[6]; GN2425, read-out: MIC concomitant, Concomitant (PIPC:SM = 1:1), P. mirabiris GN2425
  MIC: 0.063 mg/L
[7]; GN6473, Concomitant (AZT:SM = 1:1)
  MIC: 0.25 mg/L
[7]; GN6473, Concomitant (BIPM:SM = 1:1)
  MIC: 0.125 mg/L
[7]; GN6473, Concomitant (CAZ:SM = 1:1)
  MIC: 0.5 mg/L
[7]; GN6473, Concomitant (CPFX:SM = 1:1)
  MIC: 1 mg/L
[7]; GN6473, Concomitant (DRPM:SM = 1:1)
  MIC: 0.063 mg/L
